# Laboratory results reported in patent publication US20070072831A1, “Integrase inhibitor compounds” (GILEAD SCIENCES, INC., priority 2005, published 2007).
# Tests used:
# [1] = target: HIV integrase (Human immunodeficiency virus type 1 group M subtype B, UniProt P04585); experiment: biochemical
# Method: Representative compounds of the invention were tested for biological activity by methods including anti-HIV assay, measuring inhibition of HIV-integrase strand transfer catalysis, and cytotoxicity.
# HIV Integrase Assay (IC50 Determination)
# The HIV Integrase assay is carried out in Reacti-Bind High Binding Capacity Streptavidin coated plates (Pierce # 15502) in 100 μl reactions. The wells of the plate are rinsed once with PBS. Each well is then coated at room temperature for 1 h with 100 μl of 0.14 μM Donor DNA with the following sequence:
# After coating, the plate was washed twice with PBS. 3′processing of the Donor DNA is started by adding 80 μl of Integrase/buffer mixture (25 mM HEPES, pH 7.3, 12.5 mM DTT, 93.75 mM NaCl, 12.5 mM MgCl2, 1.25% Glycerol, 0.3125 uM integrase) to each well. 3′processing is allowed to proceed for 30 min at 37° C., after which, 10 μl of test compound and 10 μl of 2.5 uM DIG-labeled Target DNA with the following sequence:
# are added to each well to allow strand transfer to proceed for 30 min at 37° C. The plate is then washed three times with 2×SSC for 5 min and rinsed once with PBS. For detection of integrated product, 100 μl of a 1/2000 dilution of HRP-conjugated anti-DIG antibody (Pierce #31468) are added to each well and incubated for 1 hour. The plate was then washed three times for 5 min each, with 0.05% Tween-20 in PBS. For signal development and amplification, 100 μl of SuperSignal ELISA Femto Substrate (Pierce #37075) are added to each well. Chemiluminescence (in relative light units) is read immediately at 425 nm in the SPECTRAmax GEMINI Microplate Spectrophotometer using the end point mode at 5 sec per well.
# For IC50 determinations, eight concentrations of test compounds in a 1/2.2 dilution series are used.
# [2] = test system: HIV-IIIb; experiment: Antiviral assay in MT-4 cells infected with HIV-IIIb; format: cell-based; settings: MT4, 120 h; MT-4 cells, HIV-IIIb, 5 days; read-out: EC50 Range MT-4
# How it was run: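 MT-4 cells mixed with HIV-IIIb at m.o.i. 0.1 and added at once to 5-fold serial compound dilutions (7 concentrations, triplicate) in medium with 10% FBS. After 5 days at 37° C, cell viability read by CellTiter-Glo chemiluminescence.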
structure (smiles),measurement,setting,value
"CN(c1c2c(c(O)c3ncccc13)C(=O)N(Cc1c(F)cc(F)cc1F)C2)S(C)(=O)=O [Compound 187, N-(7-(2,4,6-trifluorobenzyl)-9-hydroxy-8-oxo-7,8-dihydro-6H-pyrrolo[3,4-g]quinolin-5-yl)-N-methylmethanesulfonamide]",IC50,[1],60 to 1000 nM
same,EC50,[2],< 60 nM
